# Data taken from patent US6362369B1, “Phthalic acid diamide derivatives fluorine-containing aniline compounds as starting material, agricultural and horticultural insecticides, and a method for application of the insecticides” (Nihon Nohyaku Co., Ltd., priority 1997, dated 2002).
# Tested on: diamondback moth (Plutella xylostella)
# Experiment: Insecticidal effect on diamondback moth (Test Example 1)
# Format: in vivo
# Settings: diamondback moth; judged by the criterion of Test Example 1
# Outline: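 Triplicate groups of 10 insects were scored: six days after immersion of oviposited Chinese cabbage seedlings and holding at 25 °C post air-drying, hatched larvae were counted. Mortality derived from these counts and insecticidal effect judged by a set criterion.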
row,Compound,"Insecticidal effect (Test Example 1), judged from mortality"
1,CC(C)(C)NC(=O)c1c(I)cccc1C(=O)Nc1ccc2oc(C(F)(F)F)nc2c1Cl [compound 1683],A (100)
2,Cc1cc2c(cc1NC(=O)c1cccc(Cl)c1C(=O)NC(C)C)OC(F)(F)O2 [compound 1661],A (100)
3,Cc1cc(C(F)(F)C(F)(F)F)ccc1NC(=O)c1c(Cl)cccc1C(=O)NCc1ccc(OC(F)(F)F)cc1 [compound 1577],A (100)

# Same assay, conditions: diamondback moth; judged by the mortality criterion of Test Example 1
row,Compound,"Insecticidal effect, Test Example 1"
1,Cc1cc(C)c(NC(=O)c2cccc(Br)c2C(=O)NC(C)C)c(C)c1 [compound 265],A (100)
2,Cc1c(Cl)cccc1NC(=O)c1cc(Cl)ccc1C(=O)NC(C)C [compound 189],A (100)
3,CC(C)NC(=O)c1ccccc1C(=O)Nc1ccc(SCC(F)(F)F)cc1 [compound 33],A (100)
4,CCCNC(=O)c1cccc(Cl)c1C(=O)Nc1ccc(OC(F)F)cc1C [compound 16],A (100)
5,Cc1cc(Cl)ccc1NC(=O)c1c(I)cccc1C(=O)NC(C)C [compound 428],A (100)
6,CC(C)NC(=O)c1ccccc1C(=O)Nc1ccc(SC(F)F)cc1 [compound 32],A (100)
7,Cc1cc(OC(C)C)ccc1NC(=O)c1c(I)cccc1C(=O)NC(C)C [compound 442],A (100)
8,CCCNC(=O)c1ccccc1C(=O)Nc1ccc(C(F)(F)F)cc1 [compound 14],A (100)
9,Cc1c(NC(=O)c2c(Cl)cccc2C(=O)NC(C)C)cccc1OC(F)(F)C(F)Cl (stereo not drawn) [compound 240],A (100)
10,Cc1cc(Cl)ccc1NC(=O)c1cc(Cl)ccc1C(=O)NC(C)C [compound 190],A (100)
11,Cc1ccc(F)cc1NC(=O)c1ccc(Cl)cc1C(=O)NC(C)C [compound 179],A (100)
12,Cc1cc(OC(F)(F)F)ccc1NC(=O)c1ccccc1C(=O)NC(C)C [compound 59],A (100)
13,Cc1ccc(F)cc1NC(=O)c1cc(Cl)ccc1C(=O)NC(C)C [compound 192],A (100)
14,CC(C)NC(=O)c1cccc(Cl)c1C(=O)Nc1ccc(SC(F)(F)C(F)F)cc1 [compound 203],A (100)
15,CC(C)NC(=O)c1c(Cl)cccc1C(=O)Nc1cc(Cl)c(OC(F)F)c(Cl)c1 [compound 151],A (100)
16,CC(C)NC(=O)c1cccc(Cl)c1C(=O)Nc1ccc2[nH]c(C(F)(F)F)nc2c1 [compound 256],A (100)
17,Cc1c(Cl)ccc(NC(=O)c2c(I)cccc2C(=O)NC(C)C)c1C [compound 434],A (100)
18,Cc1cc(OC(F)F)ccc1NC(=O)c1c(C(=O)NC(C)C)ccc(Br)c1Br [compound 342],A (100)

# Same assay, conditions: diamondback moth; mortality judged by criterion of Test Example 1
row,Compound,"Insecticidal effect, Test Example 1"
1,CCCNC(=O)c1cccc(I)c1C(=O)Nc1ccc(OC(F)(F)C(F)F)cc1C [compound 1059],A (100)
2,Cc1cc(C(F)(F)C(F)(F)F)ccc1NC(=O)c1cccc(Cl)c1C(=O)NCc1ccc(Cl)cc1Cl [compound 1349],A (100)
3,C=CCNC(=O)c1cccc(I)c1C(=O)Nc1ccc(C(F)(F)C(F)(F)F)cc1C [compound 988],A (100)
4,Cc1cc(C(F)(F)C(F)(F)F)ccc1NC(=O)c1c(I)cccc1C(=O)NC1CCCC1 [compound 992],A (100)
5,Cc1cc(OC(F)(F)F)ccc1NC(=O)c1ccc(F)c(Cl)c1C(=O)NC(C)(C)C [compound 1260],A (100)
6,Cc1cc(OC(F)(F)F)ccc1NC(=O)c1ccc(F)c(F)c1C(=O)NC(C)C [compound 1283],A (100)
7,Cc1cc(C(F)(F)C(F)(F)F)ccc1NC(=O)c1c(Cl)cccc1C(=O)NCCOc1ccc(Cl)cc1 [compound 1373],A (100)
8,Cc1cc(C(F)(F)C(F)(F)F)ccc1NC(=O)c1cccc(Cl)c1C(=O)NCCNc1ccccc1 [compound 1376],A (100)
9,CCN(CC)C(=O)c1c(I)cccc1C(=O)Nc1ccc2nc(-c3ccccc3C(F)(F)F)oc2c1 [compound 1178],A (100)
10,COc1cccc(CNC(=O)c2c(Cl)cccc2C(=O)Nc2ccc(C(F)(F)C(F)(F)F)cc2C)c1 [compound 1345],A (100)
11,Cc1cc(C(F)(F)C(F)(F)F)ccc1NC(=O)c1c(Cl)cccc1C(=O)NC(C)c1ccc(Cl)cc1 (stereo not drawn) [compound 1367],A (100)
12,Cc1cc(C(F)(F)C(F)(F)F)ccc1NC(=O)c1ccccc1C(=O)NC(CO)c1ccccc1 (stereo not drawn) [compound 1379],A (100)
13,Cc1cc(C(F)(F)C(F)(F)F)ccc1NC(=O)c1c(I)cccc1C(=O)NCc1ccccc1 [compound 1401],A (100)
14,Cc1cc(C(F)(F)C(F)(F)F)ccc1NC(=O)c1c(I)cccc1C(=O)NC(C)C(C)C (stereo not drawn) [compound 1034],A (100)

# Same assay, conditions: mortality judged according to the criterion shown in Test Example 1
row,Compound,"Insecticidal effect on diamondback moth (Test Example 1), judged grade"
1,CC(C)NC(=O)c1c(C(=O)Nc2ccc3c(c2)OCO3)cccc1[N+](=O)[O-] [compound 733],A (100)
2,CCC(C)NC(=O)c1ccccc1C(=O)Nc1ccc(C(F)(F)F)cc1 (stereo not drawn) [compound 835],A (100)
3,CC(C)NC(=O)c1cccc(F)c1C(=O)Nc1ccc(SC(F)(F)C(F)F)cc1 [compound 540],A (100)
4,Cc1cc(C)c(NC(=O)c2cccc([N+](=O)[O-])c2C(=O)NC(C)C)c(C)c1 [compound 652],A (100)
5,Cc1ccc(Cl)cc1NC(=O)c1cccc([N+](=O)[O-])c1C(=O)NC(C)c1ccccc1 (stereo not drawn) [compound 878],C (89-80)
6,CC(C)NC(=O)c1c(C(=O)Nc2c(Cl)cc(C(F)(F)F)cc2Cl)cccc1[N+](=O)[O-] [compound 662],A (100)
7,CC(C)NC(=O)c1c(C(=O)Nc2cccc(OC(C)C)c2)cccc1[N+](=O)[O-] [compound 615],A (100)
8,CC(C)NC(=O)c1c(C(=O)Nc2ccccc2C(F)(F)F)cccc1[N+](=O)[O-] [compound 608],A (100)
9,Cc1ccc(NC(=O)c2cccc([N+](=O)[O-])c2C(=O)NC(C)C)cc1 [compound 601],A (100)
10,CC(C)NC(=O)c1c(C(=O)Nc2ccc(C#N)cc2)cccc1[N+](=O)[O-] [compound 598],A (100)
11,Cc1cc(Cl)ccc1NC(=O)c1cccc([S+]([O-])C(C)C)c1C(=O)NC(C)C (stereo not drawn) [compound 793],A (100)
12,Cc1cc(Oc2c(F)c(F)c(F)c(F)c2F)ccc1NC(=O)c1c(I)cccc1C(=O)NC(C)C [compound 459],A (100)
13,Cc1ccc(Cl)cc1NC(=O)c1cc([N+](=O)[O-])ccc1C(=O)NC(C)C [compound 738],D (79-50)
14,CC(C)NC(=O)c1cccc(Cl)c1C(=O)Nc1ccc(C=C(Br)Br)cc1 [compound 914],A (100)
15,CC(C)NC(=O)c1c(C(=O)Nc2ccc(F)cc2)cccc1[N+](=O)[O-] [compound 594],A (100)
16,CC(C)N(C)C(=O)c1ccccc1C(=O)Nc1ccc(C(F)(F)F)cc1 [compound 824],A (100)
17,CC(C)NC(=O)c1c(C(=O)Nc2cccc(C#N)c2)cccc1[N+](=O)[O-] [compound 597],B (99-90)
18,CC(C)NC(=O)c1c(F)cccc1C(=O)Nc1cc(Cl)c(OC(F)F)c(Cl)c1 [compound 506],A (100)
19,Cc1cc(Oc2c(F)c(F)c(F)c(F)c2F)ccc1NC(=O)c1c(F)cccc1C(=O)NC(C)C [compound 573],A (100)
20,CC(C)NC(=O)c1c(C(=O)Nc2cc(F)ccc2F)cccc1[N+](=O)[O-] [compound 640],A (100)
21,Cc1cc(Cl)ccc1NC(=O)c1cccc(S(=O)(=O)C(C)C)c1C(=O)NC(C)C [compound 796],A (100)
22,CCOC(CNC(=O)c1c(C(=O)Nc2ccc(OC(F)F)cc2C)cccc1[N+](=O)[O-])OCC [compound 875],A (100)
23,Cc1cccc(C(=O)Nc2ccc(OC(F)(F)F)cc2)c1C(=O)NC(C)C [compound 749],A (100)
24,CC(C)NC(=O)c1cccc(Cl)c1C(=O)Nc1ccc(Oc2ccc(C(F)(F)F)cc2Cl)cc1F [compound 904],A (100)
25,CC(C)NC(=O)c1c(C(=O)Nc2ccc(OC(F)F)c(Cl)c2)cccc1[N+](=O)[O-] [compound 658],A (100)
